This is an account of results in patent publication US20220187274A1, “NEMATODE TRAP PLATE AND USE THEREFOR” (priority 2019, published 2022).

Assay [1] concerns hetero group M of free-living soil nematodes (collected at Ogasawara village, Tokyo, Japan). Briefly: Nematode trap plate olfaction test with soil nematodes other than C. elegans, group M. Type of assay: in vivo. The following applies: Example 15, plate A1, 1 mM diluted solution, negative = avoidance. Here is the method: (§1) Example 15 was conducted for the purpose of studying applicability of the plate of the present invention to evaluation of a response of nematodes other than C. elegans. Specifically, the test was conducted to examine a response of a hetero group M of free-living soil nematodes (collected at Ogasawara village, Tokyo, Japan) and a hetero group H of free-living soil nematodes (collected at Takayama city, Gifu, Japan) with respect to a volatile substance. A plate A1 identical to that produced in Example 1 was produced. Left fall-in cavities 2a were filled with a test solution, whereas right fall-in cavities 2b were filled with a buffer solution as a control. The test solution used in Example 15 was a diluted solution (1 mM) of vanillin, which is a kind of volatile substance. […] Then, the plate was left at least for an hour under a light-shielded environment. […] The chemotaxis index (C.I.) was obtained in a similar manner to Example 1, and the response of the nematodes was evaluated. […] Note that the tests involving use of the nematode group M and the nematode group H were conducted independently.

Assay [2] concerns hetero group H of free-living soil nematodes (collected at Takayama city, Gifu, Japan). Briefly: Nematode trap plate olfaction test with soil nematodes other than C. elegans, group H. The following applies: Example 15, plate A1, 1 mM diluted solution, positive = attraction. The class given is in vivo. Here is the method: as §1
Assay [3] deals with C. elegans. Nature of the assay: Nematode trap plate (PASS) olfaction test, chemotaxis index to a volatile substance. The class given is in vivo, Caenorhabditis elegans. How it is done: (Method for Evaluating Test Result) On the basis of the number of nematodes caught in the fall-in cavity which number has been obtained in the above-described manner, a response of the nematodes is evaluated. In the olfaction test or gustation test for evaluating a response of the nematodes to a chemical substance or the like, it is possible to evaluate the response on the basis of, e.g., a chemotaxis index (it may sometimes be abbreviated as “C.I.”). The chemotaxis index, which is used to evaluate the taxis of the test subject to the chemical substance or the like, is defined by in the following manner. That is, the number of nematodes caught in a control fall-in cavity is subtracted from the number of nematodes caught in a fall-in cavity for the test subject so that a difference is yielded, and the difference is divided by the total number of nematodes caught in all the fall-in cavities. In a case where there exist two or more fall-in cavities for the test subject, the total number of nematodes caught in these fall-in cavities is considered as “the number of nematodes caught in the fall-in cavity for the test subject”. Similarly, in a case where there exist two or more control fall-in cavities, the total number of nematodes caught in these control fall-in cavities is considered as “the number of nematodes caught in the control fall-in cavity”. Specifically, the chemotaxis index (C.I.) can be obtained by the following formula, where Ni is the total number of nematodes caught in the fall-in cavity for the test subject and N2 is the total number of nematodes caught in the control fall-in cavity.
Chemotaxis index (C.I.)=(N1−N2)/(N1+N2).
In the Examples shown below, tests were conducted by using C. elegans as the nematodes, unless otherwise stated. In each of the Examples, a commercially-available circular plastic dish was used as the container of the nematode trap plate. The size of the plastic dish, the capacity (volume) of a solid medium mainly made of an agar, and the number of fall-in cavities to be formed were set as appropriate in consideration of the purpose of the test, the volume of a sample obtained, and the like. In each case, the fall-in cavities were formed in the shape of a cylinder having a diameter of approximately 5 mm. […] The following description will be made by using the names of the plates shown in Table 1 (plate A1, plate A2, plate B1, plate B2, plate B3, plate B4, and plate B5).
First, a plate A1 was produced that included (a) two fall-in cavities 2a formed in a left part of a solid medium so as to be arranged side by side along the outer periphery of the solid medium and (b) two fall-in cavities 2b formed in control positions in a right part of the solid medium in a similar manner to the fall-in cavities 2a. […]
Then, the response was evaluated. […]

The subject of assay [4] is C. elegans. Nature of the assay: Conventional chemotaxis evaluation method on assay plate with sodium azide (Comparative Example 1). The class given is in vivo, Caenorhabditis elegans. The following applies: Comparative Example 1, conventional method; undiluted solution and test solution with a large dilution factor; three tests. How it is done:
As a comparative example, evaluation of a response of nematodes was conducted in accordance with a conventional chemotaxis evaluation method (e.g., Non-Patent Literature 1). […] Similarly to the test in Example 1, an undiluted solution of diacetyl and diluted solutions prepared by diluting diacetyl at five different concentrations were used as test solutions. One drop of the test solution was dripped on each of two positions (test solution spots) on a left half of a circle with a radius of 3 cm about the center of the assay plate. Meanwhile, the buffer solution serving as the control was dripped on each of positions (control spots) that were on a right half of the circle with a radius of 3 cm about the center of the assay plate and that were arranged point symmetrically. […] Based on the captured image of the entire assay plate, an example of which is shown in FIG. 11, the number of nematodes fixed under anesthesia was counted in each of test solution areas extending concentrically from the two test solution spots on the left part and control areas extending concentrically from the two control spots on the right part. […] The response of the nematodes was evaluated with use of the chemotaxis index (C.I.), which was used also in Example 1, assuming that the number of nematodes in the test solution areas was N1 and the number of nematodes in the control areas was N2. […]

For the compound `COc1cc(C=O)ccc1O` [vanillin], the “Chemotaxis index (C.I.)” value in assay [1] is “negative C.I. value”; in assay [2], “positive C.I. value”.

As to `CC(=O)C(C)=O` [diacetyl], the “Chemotaxis index (C.I.)” value with C. elegans [3] (Example 1, plate A1, four other dilution concentrations among six, all three tests, positive = attraction) was “positive values”; in the assay with C. elegans [3] (Example 1, plate A1, two highest concentrations among six (undiluted 11.5 M to 100000-fold dilution), all three tests, negative = escaping), “negative values”; with C. elegans [3] (Example 2, plate A2 (solid medium volume twice that of A1), six concentrations, undiluted to 100000-fold, three tests), “the same results as in Example 1”; with C. elegans [4], “a positive value was obtained in one case, and a negative value was obtained in another case”.

Turning to `O=Cc1ccccc1` [benzaldehyde], in the assay on C. elegans [3] (Example 3, plate B1, each of three dilutions from 10000-fold to 100000-fold of 9.8 M undiluted solution, mean of four tests, maximum 1.0), the “Chemotaxis index (C.I.)” value was “not less than 0.9”.
